# Measurements reported in patent publication US20150174068A1, “Apparatus, Composition, and Related Methods for Transdermal Delivery of Active Ingredients” (CURE IP HOLDINGS, LLC, priority 2011, published 2015).
# Where two headings read alike, the source gives them in different places.
# Key:
# [1] = human, pH 7.4
# [2] = In vitro transdermal caffeine delivery, Franz diffusion cells, excised human epidermis; assay type: in vitro ADME; settings: after application of the formulations
# Experimental: Pre-clinical selection of topical formulations was performed using an in-vitro penetration study through human epidermal membrane, which assesses the percutaneous absorption profiles of applied drugs. The method is based on the use of excised human skin as a membrane in a diffusion system that simulates in-vivo skin conditions. By analyzing the amount of the drug reaching the receptor solution, the penetration profile of the drug in the skin can be assessed and used as a tool to determine the feasibility of formulations for subsequent development. Embodiments of the transdermal compositions were tested in an in vitro penetration study through human epidermis as a testing membrane to simulate topical drug delivery. In particular, excised human epidermis was utilized to assess the penetration profiles of caffeine. Two transdermal compositions were tested: Formulation A and Formulation B. […] Formulation A was tested with and without occlusion. Parafilm was applied for occlusion tests, and the samples were kept under occlusion during the period of the study. […] The materials for the assays were: […] Formulation A; and Formulation B. […] Therefore, each formulation contained radioactive caffeine of 50 μCi/mL. The mixtures were stored at a 4° C. refrigerator after preparation. […] The amount of radioactive caffeine was analyzed from the receptor fluid samples. […]
SMILES,amount of active ingredient that penetrated the epidermis ([1]; 5 %),amount of active ingredient that penetrated the epidermis [1],time to penetration of caffeine through the epidermis into the receptor chamber [2] [min]
C[C@]12CC[C@@H]3c4ccc(O)cc4CC[C@H]3[C@@H]1CC[C@@H]2O [estradiol],Greater than 2%,,
Nc1nc2ncc(CNc3ccc(C(=O)N[C@@H](CCC(=O)O)C(=O)O)cc3)nc2c(=O)[nH]1 [folic acid],Approximately 1%,,
"CC(=O)O[C@H]1C(=O)[C@@]2(C)[C@H]([C@H](OC(=O)c3ccccc3)[C@]3(O)C[C@H](OC(=O)[C@H](O)[C@@H](NC(=O)c4ccccc4)c4ccccc4)C(C)=C1C3(C)C)[C@]1(OC(C)=O)CO[C@@H]1C[C@@H]2O [Paclitaxel, paclitaxel]",,approximately 0.5%,
Cn1c(=O)c2c(ncn2C)n(C)c1=O [caffeine],Greater than 3%,greater than 1%,≤ 3
